Where two headings read alike, the source gives them in different places. Starred links: 1 amine or outer side, 2 acyl side, 3 side chain; linkers in the order of their positions; H or OH if unused. Positions of bridges follow the written chain, without caps; N, C: chain ends. Residues, ends and D or L forms follow the SMILES beside them. *: point of attachment. C18 diacid = O=C(O)CCCCCCCCCCCCCCCCC(=O)*; γGlu = O=C(O)[C@H](CCC(=O)[*:2])N[*:1]; AEEA = NCCOCCOCC(=O)O
Assay: PK of CNP compounds after i.v. and s.c. administration to rats
Conditions: male, Sprague Dawley, rat, in vivo
Method: In order to assess the i.v. and s.c. PK/PD profile of CNP compounds of the present invention, formulations of CNP compounds were administered to rats, blood samples taken and exposure and cGMP response measured.
Quantitative plasma analysis of CNP-compounds: Plasma concentrations of CNP compounds were assayed by plasma protein precipitation and analysed by turboflow liquid chromatography mass spectrometry (TF-LC-MS). Calibrators were prepared by spiking either blank rat or minipig plasma with the relevant CNP compound in the range from 0.5 to 2000 nM. Calibrators, plasma blanks or study samples were prepared for TF-LC-MS by protein precipitation by adding three or four volumes of either ethanol or methanol containing 20 nM of internal standard to one volume of sample. For some compounds, formic acid was added to the precipitation reagent (the final concentration was 1% v/v). After the addition of the precipitation reagent, the mixture was centrifuged at 6200 rpm at 4° C. for 30 minutes. After centrifugation, one volume of supernatant was mixed with two volumes of water (with 1% v/v formic acid). The mixture was analysed by TF-LC-MS using a Cyclone turboflow column (0.5×50 mm, ThermoFisher Scientific) and either a XBridge Protein BEH C4 3.5 μm 300 Åor a XBridge Protein BEH C18 3.5 μm 130 Åanalytical column (both were 50×2.1 mm and obtained from Waters). […] The mass spectrometer was operated in positive ionisation mode. A TSQ Altis mass spectrometer (ThermoFisher Scientific) was used as detector in selected reaction monitoring mode (specific transition were optimised for each CNP compound). Linear calibration curves (weighed 1/×2) were used for calculating the concentration in the plasma samples. Quality control samples were included. The deviation between nominal and calculated concentration in the calibrators and quality control samples were below 15%.
Animals and dosing: Groups of 4-6 rats (male, Sprague Dawley, 350 g at arrival, Janvier, France) per compound and route of administration were dosed with a CNP compound formulated either in A) 8 mM sodium phosphate, 250 mM glycerol, 0.007% polysorbate 20, pH 7.4 or B) 5 mM sodium acetate, 250 mM glycerol, 0.007% polysorbate 20, pH 4.0 depending on the respective compound. S.c. dose was 300 nmol/kg, at a concentration of […] resulting in a dosing volume of 0.3 mL/kg, whereas i.v. dose was 100 nmol/kg, at a concentration of […] resulting in a dosing volume of 1 mL/kg.
Sampling: Sublingual blood samples of 250 uL were collected from unanaesthetised rats in EDTA-coated vials (Microvette 600K3E ref #15.1673.100 Sarstedt) at baseline (-1 h before dosing) as well as 5 min (only i.v. dosed groups), 2 h, 6 h, 24 h, 48 h and 72 h (only for exposure analysis) post-dosing. The blood samples were quickly stored on ice and centrifuged (4° C., 8000 RPM, 5 min) within 10 min of collection. Plasma samples of 50 μL were transferred to each micronic tube for either exposure or cGMP analysis, kept on dry ice and stored in a freezer (−20° C.). Rats had access to food (Altromin) and tap water ad libitum.
Analysis: PK parameters were calculated by non-compartment analysis (NCA) using software Phoenix WinNonlin (ver. 8.1 or later, Certara) for each animal. Clearance (Cl) was calculated as: Dose/AUCinf (linear up, log down). […] Bioavailability was calculated as dose normalized AUC's: (AUC(sc)/Dose(sc))/(AUC(iv)/Dose(iv)). Values in the table are means from individual animals (n=4-6 individual animals). The subsequent plots for cGMP plasma concentration versus time are (Y-axis) mean cGMP concentration (n=4-6 individual animals) after IV dosing and (X-axis) nominal plasma sampling time.
Plasma cGMP are reported as the mean.

[1] = iv, i.v., about 100 nmol/kg, read-out: Cl (L/hr/kg), i.v. administration (converted)
[2] = iv, i.v., about 100 nmol/kg, read-out: T½ (hr), i.v. administration (converted)
[3] = sc, s.c. bioavailability, about 300 nmol/kg, read-out: F (%), s.c. administration
[4] = sc, s.c., about 300 nmol/kg, read-out: T½ (hr), s.c. administration (converted)

Row | SMILES | clearance (iv, 100 nmol/kg) [L/h/kg] | half-life (iv, 100 nmol/kg) [h] | bioavailability (sc, 300 nmol/kg) [%] | half-life (sc, 300 nmol/kg) [h] | clearance [1] [L/h/kg] | half-life [2] [h] | bioavailability [3] [%] | half-life [4] [h]
1 | CC[C@H](C)[C@@H]1NC(=O)[C@H](CCCNC(=N)N)NC(=O)[C@H](CCC(=O)O)NC(=O)[C@H](CC(C)C)NC(=O)[C@H](CCCCN)NC(=O)[C@H](CC(C)C)NC(=O)CNC(=O)[C@H](Cc2ccccc2)NC(=O)[C@@H](NC(=O)CNC(=O)[C@H](CCCCN)NC(=O)[C@H](CO)NC(=O)[C@H](CC(C)C)NC(=O)CNC(=O)[C@H](CCCCN)NC(=O)[C@H](CCCCN)NC(=O)[C@H](CCC(N)=O)NC(=O)[C@H](C)NC(=O)CNC(=O)[C@H](CCCCN)NC(=O)[C@H](Cc2ccc(O)cc2)NC(=O)[C@H](CCCCN)NC(=O)[C@H](CCCNC(=N)N)NC(=O)[C@H](C)NC(=O)COCCOCCNC(=O)COCCOCCNC(=O)CC[C@H](NC(=O)CCCCCCCCCCCCCCCCC(=O)O)C(=O)O)CSSC[C@@H](C(=O)O)NC(=O)CNC(=O)[C@H](CC(C)C)NC(=O)CNC(=O)[C@H](CO)NC(=O)[C@H](CC(C)C)NC(=O)[C@H](CO)NC(=O)CNC1=O [compound 0776] ({C18 diacid-γGlu-AEEA-AEEA}-ARKYKGAQKKGLSKGCFGLKLERIGSLSGLGC-OH; disulfide 16-32) | 0.00613 | 10.7 | 7.35 | 5.63 | – | – | – | –
2 | CC[C@H](C)[C@@H]1NC(=O)[C@H](CCCNC(=N)N)NC(=O)[C@H](CC(=O)O)NC(=O)[C@H](CC(C)C)NC(=O)[C@@H]2CCCN2C(=O)[C@H](CC(C)C)NC(=O)CNC(=O)[C@H](Cc2ccccc2)NC(=O)[C@@H](NC(=O)CNC(=O)[C@H](CCCCN)NC(=O)[C@H](CO)NC(=O)[C@H](CC(C)C)NC(=O)CNC(=O)[C@H](CCCCN)NC(=O)[C@H](CCCCN)NC(=O)[C@H](CCC(N)=O)NC(=O)[C@H](C)NC(=O)CNC(=O)[C@H](CCC(=O)O)NC(=O)[C@H](Cc2ccc(O)cc2)NC(=O)COCCOCCNC(=O)COCCOCCNC(=O)CC[C@H](NC(=O)CCCCCCCCCCCCCCCCC(=O)O)C(=O)O)CSSC[C@@H](C(=O)O)NC(=O)CNC(=O)[C@H](CC(C)C)NC(=O)CNC(=O)[C@H](CO)NC(=O)[C@H](CC(C)C)NC(=O)[C@H](CO)NC(=O)CNC1=O [compound 1225] ({C18 diacid-γGlu-AEEA-AEEA}-YEGAQKKGLSKGCFGLPLDRIGSLSGLGC-OH; disulfide 13-29) | – | – | – | – | 0.0103 | 5.03 | 61.2 | 5.1
3 | CC[C@H](C)[C@@H]1NC(=O)[C@H](CCCNC(=N)N)NC(=O)[C@H](CC(=O)O)NC(=O)[C@H](CC(C)C)NC(=O)[C@@H]2CCCN2C(=O)[C@H](CC(C)C)NC(=O)CNC(=O)[C@H](Cc2ccccc2)NC(=O)[C@@H](NC(=O)CNC(=O)[C@H](CO)NC(=O)[C@H](CO)NC(=O)[C@H](CC(C)C)NC(=O)CNC(=O)[C@H](CCCCN)NC(=O)[C@H](CCCCN)NC(=O)[C@H](CCC(N)=O)NC(=O)[C@H](C)NC(=O)CNC(=O)[C@H](CCC(=O)O)NC(=O)[C@H](Cc2ccc(O)cc2)NC(=O)COCCOCCNC(=O)COCCOCCNC(=O)CC[C@H](NC(=O)CCCCCCCCCCCCCCCCC(=O)O)C(=O)O)CSSC[C@@H](C(=O)O)NC(=O)CNC(=O)[C@H](CC(C)C)NC(=O)CNC(=O)[C@H](CO)NC(=O)[C@H](CC(C)C)NC(=O)[C@H](CO)NC(=O)CNC1=O [compound 1227] ({C18 diacid-γGlu-AEEA-AEEA}-YEGAQKKGLSSGCFGLPLDRIGSLSGLGC-OH; disulfide 13-29) | – | – | – | – | 0.0168 | 3.56 | – | –
4 | CC[C@H](C)[C@@H]1NC(=O)[C@H](CCCNC(=N)N)NC(=O)[C@H](CC(=O)O)NC(=O)[C@H](CC(C)C)NC(=O)[C@@H]2CCCN2C(=O)[C@H](CC(C)C)NC(=O)CNC(=O)[C@H](Cc2ccccc2)NC(=O)[C@@H](NC(=O)CNC(=O)[C@H](CO)NC(=O)[C@H](CO)NC(=O)[C@H](CC(C)C)NC(=O)CNC(=O)[C@H](CCCCN)NC(=O)[C@H](CCCCN)NC(=O)[C@H](CCC(N)=O)NC(=O)[C@H](C)NC(=O)CNC(=O)[C@H](CCCCN)NC(=O)[C@H](Cc2ccc(O)cc2)NC(=O)COCCOCCNC(=O)COCCOCCNC(=O)CC[C@H](NC(=O)CCCCCCCCCCCCCCCCC(=O)O)C(=O)O)CSSC[C@@H](C(=O)O)NC(=O)CNC(=O)[C@H](CC(C)C)NC(=O)CNC(=O)[C@H](CO)NC(=O)[C@H](CC(C)C)NC(=O)[C@H](CO)NC(=O)CNC1=O [compound 1233] ({C18 diacid-γGlu-AEEA-AEEA}-YKGAQKKGLSSGCFGLPLDRIGSLSGLGC-OH; disulfide 13-29) | – | – | – | – | 0.0246 | 1.42 | 33.8 | 3.57
5 | CC[C@H](C)[C@@H]1NC(=O)[C@H](CCCNC(=N)N)NC(=O)[C@H](CC(=O)O)NC(=O)[C@H](CC(C)C)NC(=O)[C@H](CCCCN)NC(=O)[C@H](CC(C)C)NC(=O)CNC(=O)[C@H](Cc2ccccc2)NC(=O)[C@@H](NC(=O)CNC(=O)[C@H](CCCCN)NC(=O)[C@H](CO)NC(=O)[C@H](CC(C)C)NC(=O)CNC(=O)[C@H](CCCCN)NC(=O)[C@H](CCCCN)NC(=O)[C@H](CCC(N)=O)NC(=O)[C@H](C)NC(=O)CNC(=O)[C@H](Cc2c[nH]cn2)NC(=O)[C@H](CCC(=O)O)NC(=O)COCCOCCNC(=O)COCCOCCNC(=O)CC[C@H](NC(=O)CCCCCCCCCCCCCCCCC(=O)O)C(=O)O)CSSC[C@@H](C(=O)O)NC(=O)CNC(=O)[C@H](CC(C)C)NC(=O)CNC(=O)[C@H](CO)NC(=O)[C@H](CC(C)C)NC(=O)[C@H](CO)NC(=O)CNC1=O [compound 1235] | 0.0115 | 6.2 | 65.8 | 6.28 | – | – | – | –
6 | CC[C@H](C)[C@@H]1NC(=O)[C@H](CCCNC(=N)N)NC(=O)[C@H](CC(=O)O)NC(=O)[C@H](CC(C)C)NC(=O)[C@@H]2CCCN2C(=O)[C@H](CC(C)C)NC(=O)CNC(=O)[C@H](Cc2ccccc2)NC(=O)[C@@H](NC(=O)CNC(=O)[C@H](CO)NC(=O)[C@H](CO)NC(=O)[C@H](CC(C)C)NC(=O)CNC(=O)[C@H](CCCCN)NC(=O)[C@H](CCCCN)NC(=O)[C@H](CCC(N)=O)NC(=O)[C@H](C)NC(=O)CNC(=O)[C@H](Cc2c[nH]cn2)NC(=O)[C@H](Cc2ccc(O)cc2)NC(=O)COCCOCCNC(=O)COCCOCCNC(=O)CC[C@H](NC(=O)CCCCCCCCCCCCCCCCC(=O)O)C(=O)O)CSSC[C@@H](C(=O)O)NC(=O)CNC(=O)[C@H](CC(C)C)NC(=O)CNC(=O)[C@H](CO)NC(=O)[C@H](CC(C)C)NC(=O)[C@H](CO)NC(=O)CNC1=O [compound 1241] ({C18 diacid-γGlu-AEEA-AEEA}-YHGAQKKGLSSGCFGLPLDRIGSLSGLGC-OH; disulfide 13-29) | – | – | – | – | 0.0164 | 2.78 | – | –
7 | CC[C@H](C)[C@@H]1NC(=O)[C@H](CCCNC(=N)N)NC(=O)[C@H](CC(=O)O)NC(=O)[C@H](CC(C)C)NC(=O)[C@@H]2CCCN2C(=O)[C@H](CC(C)C)NC(=O)CNC(=O)[C@H](Cc2ccccc2)NC(=O)[C@@H](NC(=O)CNC(=O)[C@H](CO)NC(=O)[C@H](CO)NC(=O)[C@@H](NC(=O)CNC(=O)[C@@H](NC(=O)[C@H](CCCCN)NC(=O)[C@H](CCC(N)=O)NC(=O)[C@H](C)NC(=O)CNC(=O)[C@H](Cc2c[nH]cn2)NC(=O)[C@H](Cc2ccc(O)cc2)NC(=O)[C@H](CCCCN)NC(=O)[C@H](CCCNC(=N)N)NC(=O)[C@H](C)NC(=O)COCCOCCNC(=O)COCCOCCNC(=O)CC[C@H](NC(=O)CC[C@H](NC(=O)CCCCCCCCCCCCCCCCC(=O)O)C(=O)O)C(=O)O)[C@@H](C)O)C(C)C)CSSC[C@@H](C(=O)O)NC(=O)CNC(=O)[C@H](CC(C)C)NC(=O)CNC(=O)[C@H](CO)NC(=O)[C@H](CC(C)C)NC(=O)[C@H](CO)NC(=O)CNC1=O [compound 1354] ({C18 diacid-γGlu-γGlu-AEEA-AEEA}-ARKYHGAQKTGVSSGCFGLPLDRIGSLSGLGC-OH; disulfide 16-32) | – | – | – | – | 0.00652 | 7.56 | – | –

Source: patent publication US20240209028A1, “CNP COMPOUNDS” (priority 2022, published 2024)
